The values that follow come from US20250134869A1, “Pyrrolo[2,3-d]pyrimidinyl, Pyrrolo[2,3-b]pyrazinyl and Pyrrolo[2,3-d]pyridinyl Acryla-mides” (Pfizer Inc, priority 2021, published 2025).

Where two headings read alike, the source gives them in different places.

This assay has as its target JAK3 enzyme (Homo sapiens (Human), UniProt P52333). Briefly: JAK Caliper Enzyme Assay at 4 μM or 1 mM ATP. The format is biochemical.
The mark [1] stands for this setting: read-out: JAK3 (4 μM ATP) IC50, 4 μM ATP.
The mark [2] stands for this setting: read-out: JAK3 (1 mM ATP) IC50, 1 mM ATP.

Sequence of JAK3 enzyme (P52333 whole entry, species assumed): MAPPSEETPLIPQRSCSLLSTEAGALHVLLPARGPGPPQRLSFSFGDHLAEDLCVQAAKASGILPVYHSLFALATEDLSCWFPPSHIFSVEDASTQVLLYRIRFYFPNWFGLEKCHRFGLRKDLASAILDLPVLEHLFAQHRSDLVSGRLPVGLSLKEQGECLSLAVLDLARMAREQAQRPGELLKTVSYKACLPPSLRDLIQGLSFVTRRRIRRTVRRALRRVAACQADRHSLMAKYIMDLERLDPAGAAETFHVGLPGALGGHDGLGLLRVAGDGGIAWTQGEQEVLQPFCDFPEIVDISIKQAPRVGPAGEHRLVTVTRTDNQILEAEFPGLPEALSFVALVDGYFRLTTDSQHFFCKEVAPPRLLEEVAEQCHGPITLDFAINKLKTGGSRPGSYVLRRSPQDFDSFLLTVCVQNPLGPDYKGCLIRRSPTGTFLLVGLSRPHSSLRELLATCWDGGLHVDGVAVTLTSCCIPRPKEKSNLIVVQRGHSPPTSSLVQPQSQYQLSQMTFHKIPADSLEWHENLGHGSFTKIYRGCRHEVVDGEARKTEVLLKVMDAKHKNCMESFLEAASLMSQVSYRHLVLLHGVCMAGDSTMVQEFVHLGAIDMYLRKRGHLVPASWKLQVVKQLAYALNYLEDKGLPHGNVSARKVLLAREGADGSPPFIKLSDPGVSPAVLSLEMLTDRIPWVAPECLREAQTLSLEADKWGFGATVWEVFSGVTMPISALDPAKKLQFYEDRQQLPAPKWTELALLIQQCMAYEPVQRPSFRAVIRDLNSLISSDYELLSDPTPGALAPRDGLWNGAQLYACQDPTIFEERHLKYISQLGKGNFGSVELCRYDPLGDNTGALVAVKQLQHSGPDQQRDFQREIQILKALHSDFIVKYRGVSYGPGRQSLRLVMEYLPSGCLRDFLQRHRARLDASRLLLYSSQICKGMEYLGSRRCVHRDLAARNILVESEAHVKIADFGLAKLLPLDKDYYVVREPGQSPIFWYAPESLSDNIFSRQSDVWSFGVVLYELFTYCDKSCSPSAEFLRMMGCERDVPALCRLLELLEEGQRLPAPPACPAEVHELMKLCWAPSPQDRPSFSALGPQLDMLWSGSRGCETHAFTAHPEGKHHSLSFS

On to `C=CC(=O)N(C)C1CN(c2cnc3[nH]cc(C(=O)NC(C)C)c3n2)C1` [Example 187, 2-{3-[acryloyl(methyl)amino]azetidin-1-yl}-N-(propan-2-yl)-5H-pyrrolo[2,3-b]pyrazine-7-carboxamide], for which the IC50 is 0.6 nM under setting [1] and 27.2 nM under setting [2].
For `C=CC(=O)N1CC(Nc2cnc3[nH]cc(C(=O)NC(C)C)c3n2)C1` [Example 188, 2-[(1-acryloylazetidin-3-yl)amino]-N-(propan-2-yl)-5H-pyrrolo[2,3-b]pyrazine-7-carboxamide] the same measures were 0.3 nM and 8.8 nM.
Consider `C=CC(=O)N1CC[C@@H](CNc2cnc3[nH]cc(C(=O)NC(C)C)c3n2)C1` [Example 191, 2-({[(3S)-1-acryloylpyrrolidin-3-yl]methyl}amino)-N-(propan-2-yl)-5H-pyrrolo[2,3-b]pyrazine-7-carboxamide], for which the IC50 under setting [1] was determined as 1.5 nM and the half-maximal inhibitory concentration (IC50) under setting [2] worked out at 138 nM.
Turning to `C=CC(=O)NC1CN(c2cnc3[nH]ccc3n2)C1` [Example 192, N-[1-(5H-pyrrolo[2,3-b]pyrazin-2-yl)azetidin-3-yl]prop-2-enamide], the IC50 under setting [1] is 272 nM.
For the compound `C=CC(=O)N1CCC(CNc2cnc3[nH]cc(C(=O)NC(C)C)c3n2)CC1` [Example 193, 2-{[(1-acryloylpiperidin-4-yl)methyl]amino}-N-(propan-2-yl)-5H-pyrrolo[2,3-b]pyrazine-7-carboxamide], the 50% inhibitory concentration (IC50) is, setting by setting: under setting [1], 29 nM; under setting [2], 2290 nM.
As to `C=CC(=O)N1CC[C@@H](Nc2cnc3[nH]cc(C(=O)NC(C)C)c3n2)[C@H](O)C1` [Example 196, 2-{[(3R,4R)-1-acryloyl-3-hydroxypiperidin-4-yl]amino}-N-(propan-2-yl)-5H-pyrrolo[2,3-b]pyrazine-7-carboxamide], the IC50 under setting [1] was determined as 0.3 nM and the IC50 under setting [2] was determined as 30.6 nM.
On to `C=CC(=O)NC[C@@]12C[C@@H]1CN(c1cnc3[nH]ccc3n1)C2` [Example 197, N-{[(1R,5S)-3-(5H-pyrrolo[2,3-b]pyrazin-2-yl)-3-azabicyclo[3.1.0]hex-1-yl]methyl}prop-2-enamide], for which the IC50 under setting [1] turned out to be 3490 nM.
For `C=CC(=O)N[C@H]1C[C@H](Nc2cnc3[nH]cc(C(=O)NC(C)C)c3n2)C1` [Example 198, 2-{[trans-3-(acryloylamino)cyclobutyl]amino}-N-(propan-2-yl)-5H-pyrrolo[2,3-b]pyrazine-7-carboxamide], the IC50 is, setting by setting: under setting [1], 1 nM; under setting [2], 77.6 nM.
The corresponding values for `C=CC(=O)N1CCC(Nc2cnc3[nH]cc(-c4ccncc4F)c3n2)CC1` [Example 200, 1-(4-{[7-(3-fluoropyridin-4-yl)-5H-pyrrolo[2,3-b]pyrazin-2-yl]amino}piperidin-1-yl)prop-2-en-1-one] are 0.8 nM and 88.9 nM.
For `C=CC(=O)N1CCC(Nc2cnc3[nH]cc(-c4ccnc(C)c4)c3n2)CC1` [Example 201, 1-(4-{[7-(2-methylpyridin-4-yl)-5H-pyrrolo[2,3-b]pyrazin-2-yl]amino}piperidin-1-yl)prop-2-en-1-one] the same measures were 0.5 nM and 28 nM.
The corresponding values for `C=CC(=O)N1CCC(Nc2cnc3[nH]cc(-c4cncnc4)c3n2)CC1` [Example 202, 1-(4-{[7-(pyrimidin-5-yl)-5H-pyrrolo[2,3-b]pyrazin-2-yl]amino}piperidin-1-yl)prop-2-en-1-one] are 0.9 nM and 99.1 nM.
As to `C=CC(=O)N1CCC(Nc2cnc3[nH]cc(-c4ccc(S(C)(=O)=O)cc4)c3n2)CC1` [Example 203, 1-[4-({7-[4-(methylsulfonyl)phenyl]-5H-pyrrolo[2,3-b]pyrazin-2-yl}amino)piperidin-1-yl]prop-2-en-1-one], the IC50 by setting is: under setting [1], 2 nM; under setting [2], 148 nM.
For the compound `C=CC(=O)N1CCC(Nc2cnc3[nH]cc(-c4cccc(C(=O)NC)c4)c3n2)CC1` [Example 204, 3-{2-[(1-acryloylpiperidin-4-yl)amino]-5H-pyrrolo[2,3-b]pyrazin-7-yl}-N-methylbenzamide], the IC50 by setting is: under setting [1], 0.5 nM; under setting [2], 49.3 nM.
With `C=CC(=O)N1CCC(Nc2cnc3[nH]cc(-c4cccnc4)c3n2)CC1` [Example 205, 1-(4-{[7-(pyridin-3-yl)-5H-pyrrolo[2,3-b]pyrazin-2-yl]amino}piperidin-1-yl)prop-2-en-1-one], the IC50 reads like this: under setting [1], 0.5 nM; under setting [2], 14.8 nM.
`C=CC(=O)N1CCC(Nc2cnc3[nH]cc(-c4ccc(F)nc4)c3n2)CC1` [Example 207, 1-(4-{[7-(6-fluoropyridin-3-yl)-5H-pyrrolo[2,3-b]pyrazin-2-yl]amino}piperidin-1-yl)prop-2-en-1-one]: the IC50 was 0.3 nM under setting [1] and 28.9 nM under setting [2].
For the compound `C=CC(=O)N1CCC(Nc2cnc3[nH]cc(-c4cnc(N5CCOCC5)nc4)c3n2)CC1` [Example 208, 1-[4-({7-[2-(morpholin-4-yl)pyrimidin-5-yl]-5H-pyrrolo[2,3-b]pyrazin-2-yl}amino)piperidin-1-yl]prop-2-en-1-one], the IC50 was 5.9 nM under setting [1] and 576 nM under setting [2].
With `C=CC(=O)N1CCC(Nc2cnc3[nH]cc(-c4ccccc4)c3n2)CC1` [Example 209, 1-{4-[(7-phenyl-5H-pyrrolo[2,3-b]pyrazin-2-yl)amino]piperidin-1-yl}prop-2-en-1-one], the IC50 worked out at 0.2 nM under setting [1] and 14.3 nM under setting [2].
For `C=CC(=O)N1CCC(Nc2cnc3[nH]cc(-c4cnc(OC)nc4)c3n2)CC1` [Example 210, 1-(4-{[7-(2-methoxypyrimidin-5-yl)-5H-pyrrolo[2,3-b]pyrazin-2-yl]amino}piperidin-1-yl)prop-2-en-1-one] the same measures were 0.4 nM and 45.4 nM.
Turning to `C=CC(=O)N1CCC(Nc2cnc3[nH]cc(-c4ccnc(F)c4)c3n2)CC1` [Example 211, 1-(4-{[7-(2-fluoropyridin-4-yl)-5H-pyrrolo[2,3-b]pyrazin-2-yl]amino}piperidin-1-yl)prop-2-en-1-one], the IC50 under setting [1] turned out to be 0.2 nM and the IC50 under setting [2] is 34.2 nM.
The corresponding values for `C=CC(=O)N1CCC(Nc2cnc3[nH]cc(-c4cncc(F)c4)c3n2)CC1` [Example 212, 1-(4-{[7-(5-fluoropyridin-3-yl)-5H-pyrrolo[2,3-b]pyrazin-2-yl]amino}piperidin-1-yl)prop-2-en-1-one] are 0.3 nM and 16 nM.
For `C=CC(=O)N1CCC(Oc2cnc3[nH]cc(-c4ccc(C)nc4)c3n2)CC1` [Example 214, 1-(4-{[7-(6-methylpyridin-3-yl)-5H-pyrrolo[2,3-b]pyrazin-2-yl]oxy}piperidin-1-yl)prop-2-en-1-one] the same measures were 2.3 nM and 308 nM.
For `C=CC(=O)N1CCC(Oc2cnc3[nH]cc(-c4cncnc4)c3n2)CC1` [Example 215, 1-(4-{[7-(pyrimidin-5-yl)-5H-pyrrolo[2,3-b]pyrazin-2-yl]oxy}piperidin-1-yl)prop-2-en-1-one] the same measures were 2.9 nM and 386 nM.
Regarding `C=CC(=O)N1CCC(Oc2cnc3[nH]cc(-c4ccc(C#N)nc4)c3n2)CC1` [Example 216, 5-{2-[(1-acryloylpiperidin-4-yl)oxy]-5H-pyrrolo[2,3-b]pyrazin-7-yl}pyridine-2-carbonitrile], the IC50 worked out at 12.5 nM under setting [1] and 1030 nM under setting [2].
The corresponding values for `C=CC(=O)N1CCC(Oc2cnc3[nH]cc(-c4cnc(OC)nc4)c3n2)CC1` [Example 219, 1-(4-{[7-(2-methoxypyrimidin-5-yl)-5H-pyrrolo[2,3-b]pyrazin-2-yl]oxy}piperidin-1-yl)prop-2-en-1-one] are 1.7 nM and 153 nM.
The corresponding values for `C=CC(=O)N1CCC(Oc2cnc3[nH]cc(-c4ccnc(F)c4)c3n2)CC1` [Example 222, 1-(4-{[7-(2-fluoropyridin-4-yl)-5H-pyrrolo[2,3-b]pyrazin-2-yl]oxy}piperidin-1-yl)prop-2-en-1-one] are 1.1 nM and 125 nM.
On to `C=CC(=O)N1CCC(Oc2cnc3[nH]cc(-c4c(C)noc4C)c3n2)CC1` [Example 224, 1-(4-{[7-(3,5-dimethyl-1,2-oxazol-4-yl)-5H-pyrrolo[2,3-b]pyrazin-2-yl]oxy}piperidin-1-yl)prop-2-en-1-one], for which the IC50 under setting [1] is 17.6 nM and the IC50 under setting [2] was determined as 1540 nM.
For `C=CC(=O)N1CCC(Oc2cnc3[nH]cc(-c4cccc(C(=O)NC)c4)c3n2)CC1` [Example 227, 3-{2-[(1-acryloylpiperidin-4-yl)oxy]-5H-pyrrolo[2,3-b]pyrazin-7-yl}-N-methylbenzamide], the IC50 came out at 0.9 nM under setting [1] and 71.8 nM under setting [2].
Take `C=CC(=O)N1CCC(Oc2cnc3[nH]cc(-c4ccc(S(C)(=O)=O)cc4)c3n2)CC1` [Example 229, 1-[4-({7-[4-(methylsulfonyl)phenyl]-5H-pyrrolo[2,3-b]pyrazin-2-yl}oxy)piperidin-1-yl]prop-2-en-1-one]: the IC50 under setting [1] came out at 7.1 nM and the IC50 under setting [2] was 745 nM.
For the compound `C=CC(=O)N1CCC(Nc2cnc3[nH]cc(C(=O)NCC4(O)CCC4)c3n2)CC1` [Example 231, 2-[(1-acryloylpiperidin-4-yl)amino]-N-[(1-hydroxycyclobutyl)methyl]-5H-pyrrolo[2,3-b]pyrazine-7-carboxamide], the IC50 came out at 0.6 nM under setting [1] and 52.6 nM under setting [2].
In the case of `C=CC(=O)N1CCC(Nc2cnc3[nH]cc(C(=O)NCC4(O)CCCC4)c3n2)CC1` [Example 232, 2-[(1-acryloylpiperidin-4-yl)amino]-N-[(1-hydroxycyclopentyl)methyl]-5H-pyrrolo[2,3-b]pyrazine-7-carboxamide], the IC50 reads like this: under setting [1], 0.3 nM; under setting [2], 25 nM.
With `C=CC(=O)N1CCC(Nc2cnc3[nH]cc(C(=O)NC4CCCC4(F)F)c3n2)CC1` (centres unmarked) [Example 234, 2-[(1-acryloylpiperidin-4-yl)amino]-N-(2,2-difluorocyclopentyl)-5H-pyrrolo[2,3-b]pyrazine-7-carboxamide], the IC50 was less than 0.3 nM under setting [1] and 4.9 nM under setting [2].
For `C=CC(=O)N1CCC(Nc2cnc3[nH]cc(C(=O)NC4CCCC(F)(F)C4)c3n2)CC1` (centres unmarked) [Example 236, 2-[(1-acryloylpiperidin-4-yl)amino]-N-(3,3-difluorocyclohexyl)-5H-pyrrolo[2,3-b]pyrazine-7-carboxamide] the same measures were 0.1 nM and 8.3 nM.

What is called IC50 is the concentration that inhibits the measured activity by half.
